Laboratory results from patent publication US8188218B2, “Bi-functional peptides for multiple sclerosis treatment and diagnosis” (priority 2006, dated 2012).
Read-outs that look alike come from different tables or passages of the source. Numbered stars: 1 amine (or outer) side, 2 acyl side, 3 side chain; on linkers, the order of the positions; unused ones are H or OH. Square brackets hold non-standard residues; d marks the D form. Ends that are not written are not given here. Peptide text beside a SMILES is read from it. Eb = biotinyl-PEG-Glu: N-γ-(N-biotinyl-3-(2-(2-(3-aminopropyloxy)-ethoxy)-ethoxy)-propyl)-L-glutamine, O=C(CCCC[C@@H]1SC[C@@H]2NC(=O)N[C@@H]21)NCCCOCCOCCOCCCNC(=O)CC[C@H](N[*:1])C(=O)[*:2]; Ahx = NCCCCCC(=O)O

Key:
[1] = tested on: EAE mouse model; assay: EAE mouse model, PLP-BPI vs mixture of PLP and LABL and VP2-BPI (Example 4); format: in vivo
Source text: To evaluate whether linking PLP and LABL peptides to give PLP-BPI has a significant role on its immunomodulatory activity, the activity of PLP-BPI was compared with that of a mixture of unlinked PLP and LABL peptides at the same concentration. To answer whether any antigenic peptide such as VP2 peptide that is linked to LABL peptide to give VP2-BPI will have immunomodulatory activity similar to that of PLP-BPI, we evaluated the activity of VP2-BPI in the same experiment. VP274-86 is an epitope peptide of Theiler's encephalomyelitis virus capsid protein VP2, and is known to bind to I-A^s. PBS-treated mice were used as the negative control. The experimental protocol was the same as in the previous study (see FIG. 1). Thus, VP2-BPI was used as a control to example to see if the PLP portion of the PLP-BPI is important to therapeutic activity.

[2] = tested on: EAE mouse model (SJL/J female mice immunized with PLP/CFA); format: in vivo; details: for number of animals that died, Day 10 / number of animals that died, Day 11 / number of animals that died, Day 14 / number of animals that died, Total: 10 mice/group; for toxicity (conclusion from mortality, in words): mouse, in vivo
Description: To evaluate the in vivo activity of these molecules, SJL/J female mice at 6-8 weeks of age (Jackson Laboratory, Bar Harbor, Me.) were divided into six groups with ten mice in each group. At the initiation state (Day 0), all mice (10/group) were immunized by subcutaneous (s.c.) inoculation with 200 μg of PLP in a 0.2 mL emulsion with equal volumes of phosphate buffered saline (“PBS”) and complete Freund's adjuvant (“CFA”) (Difco, Detroit, Mich.). To enhance immunization with antigen, killed Mycobacterium tuberculosis strain H37RA (Difco) was added to the emulsion at a concentration of 4 mg/mL and administered to regions above the shoulder and the flanks. The injection volume was 50 μL at each injection site. In addition, 200 ng of pertussis toxin (List Biological Laboratories, Campbell, Calif.) was injected intraperitoneally (i.p.) on the day of immunization and 48 hours post-immunization. The onset of disease was on day 8 to day 12 post-immunization. Then, each mouse in Groups 1-4 received intravenous (i.v.) injections of 100 nmole/100 μL of the test peptides (PLP-BPI, PLP139-151, OVA-BPI, LABL) on days 4, 7, 10 and 14. Group 5 animals were injected with PBS on days 4, 7, 10 and 14. Group 6 animals received one i.p. injection of 500 μg PLPL,R on day 7.
All of the immunized mice were scored blindly 5-6 days/week by the same observer. Mean daily clinical scores were calculated by adding the grades of each mouse individually divided by the number of mice in each group. All animals were observed daily and, upon signs of paralysis and weakness, gel food and Napa nectar were provided to the animals to prevent dehydration. Saline was injected (s.c.) if a weight loss of 10% was observed within a 24-hour period. Body weight and disease scoring started at the onset of the disease (day 8). The measurements were continued daily (5 to 6 days/week) until the end of the disease.
The statistical analyses of the EAE scores and EAE incidence were done using Mann-Whitney U test and Kaplan-Meier analysis, respectively. The comparison was done between the peptide-treated mice (Groups 1, 2, 3, 4, and 6) and the control group (Group 5) at day 14 post-immunization.

[3] = tested on: LS102.9 mouse B-cells; assay: Binding of biotin-labeled PLP-BPI to B-cell line, flow cytometry; format: cell-based; details: 50 μM, 16 hours at 37° C.; FIG. 11(A)
Source text: (each step was followed by washing×3). […] The results are illustrated in FIG. 11.

[4] = tested on: T-cell-depleted splenocytes isolated from SJL/J female mice (EAE-induced); details: 50 μM, 16 hours at 37° C.; FIG. 11(B)
[5] = tested on: PLP/CFA-immunized female SJL/J mice; assay: Anaphylaxis incidence after injection of the peptide at later phase of disease; format: in vivo, mouse
Source text: The less incidence of inducing anaphylactic shock by BPI molecules was further examined. Female SJL/J mice were immunized with PLP/CFA as above, and injected intravenously with PLP or BPI molecules (100 nmol/mouse) at later phase of the disease (i.e., between day 28 and day 35). […] This was confirmed in another set of experiment, PLP-BPI induced anaphylaxis to 38.5% of treated mice while PLP caused anaphylaxis to more than 80% of treated mice (Table 9, Experiment II). In addition, 100% of mice that were injected with unlinked mixture of PLP and LABL (100 nmol each) died due to anaphylaxis. […] Taken together, BPI molecules (including PLP-BPI and Ac-PLP-BPI-NH2) could suppress EAE more efficiently with lower incidence of inducing anaphylaxis than PLP.

[6] = tested on: PLP/CFA-immunized mice; assay: Anaphylaxis incidence after re-injection of the peptide at day 30
Source text: In this example, the ability of BPI molecules to induce anaphylaxis after multiple injections was investigated.

[7] = Experiment I, 100 nmol/mouse i.v. between day 28 and day 35
[8] = Experiment II, 100 nmol/mouse i.v. (mixture 100 nmol each)
[9] = Experiment III, 100 nmol/mouse i.v.
[10] = peptide treatment day 4 (one), re-injection day 30
[11] = peptide treatment day 4, 7, 10, 14 (four), re-injection day 30

## QEAFSHIRIPLPH-AcGAcGAc-ITDGEATDSG (QEAFSHIRIPLPH[Ahx]G[Ahx]G[Ahx]ITDGEATDSG; listed as Homo sapiens) [VP2-BPI]
[1]; after day 17, FIG. 8(B)
  disease incidence: 100%
[1]; around day 14, FIG. 8(C)
  loss of body weight (in words): greatest in PBS-treated mice followed by VP2-BPI-treated mice

## CC(C)C[C@H](NC(=O)[C@H](CC(C)C)NC(=O)[C@H](CCCCN)NC(=O)CNC(=O)[C@H](CC(C)C)NC(=O)[C@H](CO)NC(=O)[C@@H](N)Cc1c[nH]cn1)C(=O)NCC(=O)N[C@@H](CCCNC(=N)N)C(=O)N1CCC[C@H]1C(=O)N[C@@H](CC(=O)O)C(=O)N[C@@H](CCCCN)C(=O)N[C@@H](Cc1ccccc1)C(=O)O [PLPL,R, HSLGKLLGRPDKF] (H-HSLGKLLGRPDKF-OH)
[2]
  number of animals that died, Day 10: 0
  number of animals that died, Day 11: 5
  number of animals that died, Day 14: 1
  toxicity (conclusion from mortality, in words): severe effect (toxicity)

## CC[C@H](C)[C@H](N)C(=O)N[C@H](C(=O)N[C@@H](CC(=O)O)C(=O)NCC(=O)N[C@@H](CCC(=O)O)C(=O)N[C@@H](C)C(=O)N[C@H](C(=O)N[C@@H](CC(=O)O)C(=O)N[C@@H](CO)C(=O)NCC(=O)O)[C@@H](C)O)[C@@H](C)O [LABL, ITDGEATDSG]
[2]
  number of animals that died, Day 10: 3
  number of animals that died, Day 11: 1
  number of animals that died, Day 14: 0

## EbHSLGKWLGHPDKF-AcGAcGAc-ITDGEATDSG ([Eb]HSLGKWLGHPDKF[Ahx]G[Ahx]G[Ahx]ITDGEATDSG) [B-PLP-BPI]
[3]
  binding to LS102.9 B-cell line (in words): binds to LS102.9 B-cell line
[4]
  binding to B-cells from the spleen of EAE-induced mice (in words): can also bind to the B-cells from the spleen of EAE-induced mice

## CC[C@H](C)[C@H](NC(=O)CCCCCNC(=O)CNC(=O)CCCCCNC(=O)CNC(=O)CCCCCNC(=O)[C@H](C)NC(=O)[C@H](CCC(=O)O)NC(=O)[C@H](CC(N)=O)NC(=O)[C@@H](NC(=O)[C@H](CCC(=O)O)NC(=O)[C@H](C)NC(=O)[C@H](Cc1c[nH]cn1)NC(=O)[C@H](C)NC(=O)[C@H](C)NC(=O)[C@H](Cc1c[nH]cn1)NC(=O)[C@@H](NC(=O)[C@H](C)N)C(C)C)[C@@H](C)CC)C(=O)N[C@H](C(=O)N[C@@H](CC(=O)O)C(=O)NCC(=O)N[C@@H](CCC(=O)O)C(=O)N[C@@H](C)C(=O)N[C@H](C(=O)N[C@@H](CC(=O)O)C(=O)N[C@@H](CO)C(=O)NCC(=O)O)[C@@H](C)O)[C@@H](C)O [OVA-BPI, AVHAAHAEINEA-AcGAcGAc-ITDGEATDSG]
[2]
  number of animals that died, Day 10: 0
  number of animals that died, Day 11: 0
  number of animals that died, Day 14: 2
  number of animals that died, Total: 2

## CC(C)C[C@H](NC(=O)[C@H](Cc1c[nH]c2ccccc12)NC(=O)[C@H](CCCCN)NC(=O)CNC(=O)[C@H](CC(C)C)NC(=O)[C@H](CO)NC(=O)[C@@H](N)Cc1c[nH]cn1)C(=O)NCC(=O)N[C@@H](Cc1c[nH]cn1)C(=O)N1CCC[C@H]1C(=O)N[C@@H](CC(=O)O)C(=O)N[C@@H](CCCCN)C(=O)N[C@@H](Cc1ccccc1)C(=O)O [PLP, HSLGKWLGHPDKF]
[2]
  number of animals that died, Day 10: 0
  number of animals that died, Day 11: 0
  number of animals that died, Day 14: 0
  number of animals that died, Total: no animals died
[2]; listed as PLP139-151
  number of animals that died, Total: 0
[5]; [7]
  Incidence of anaphylaxis: 75.0%
  Incidence of anaphylaxis (animals/total): 9/12
[5]; [8]
  Incidence of anaphylaxis (animals/total): 11/13
[5]; [9]
  Incidence of anaphylaxis: 76.5%
  Incidence of anaphylaxis (animals/total): 13/17
[6]; peptide treatment None (PBS) day 4, 7, 10, 14, peptide injection day 30
  Moribund or death: 3/4

## CC[C@H](C)[C@H](NC(=O)CCCCCNC(=O)CNC(=O)CCCCCNC(=O)CNC(=O)CCCCCNC(=O)[C@H](Cc1ccccc1)NC(=O)[C@H](CCCCN)NC(=O)[C@H](CC(=O)O)NC(=O)[C@@H]1CCCN1C(=O)[C@H](Cc1c[nH]cn1)NC(=O)CNC(=O)[C@H](CC(C)C)NC(=O)[C@H](Cc1c[nH]c2ccccc12)NC(=O)[C@H](CCCCN)NC(=O)CNC(=O)[C@H](CC(C)C)NC(=O)[C@H](CO)NC(=O)[C@H](Cc1c[nH]cn1)NC(C)=O)C(=O)N[C@H](C(=O)N[C@@H](CC(=O)O)C(=O)NCC(=O)N[C@@H](CCC(=O)O)C(=O)N[C@@H](C)C(=O)N[C@H](C(=O)N[C@@H](CC(=O)O)C(=O)N[C@@H](CO)C(=O)NCC(N)=O)[C@@H](C)O)[C@@H](C)O [Ac-PLP-BPI-NH2, Ac-HSLGKWLGHPDKF)-AcGAcGAc-ITDGEATDSG-NH2]
[5]; [9]
  Incidence of anaphylaxis: 43.8%
  Incidence of anaphylaxis (animals/total): 7/16
[6]; [10]
  Moribund or death: 2/6
[6]; [11]
  Moribund or death: 1/6

## CC[C@H](C)[C@H](NC(=O)CCCCCNC(=O)CNC(=O)CCCCCNC(=O)CNC(=O)CCCCCNC(=O)[C@H](Cc1ccccc1)NC(=O)[C@H](CCCCN)NC(=O)[C@H](CC(=O)O)NC(=O)[C@@H]1CCCN1C(=O)[C@H](Cc1c[nH]cn1)NC(=O)CNC(=O)[C@H](CC(C)C)NC(=O)[C@H](Cc1c[nH]c2ccccc12)NC(=O)[C@H](CCCCN)NC(=O)CNC(=O)[C@H](CC(C)C)NC(=O)[C@H](CO)NC(=O)[C@@H](N)Cc1c[nH]cn1)C(=O)N[C@H](C(=O)N[C@@H](CC(=O)O)C(=O)NCC(=O)N[C@@H](CCC(=O)O)C(=O)N[C@@H](C)C(=O)N[C@H](C(=O)N[C@@H](CC(=O)O)C(=O)N[C@@H](CO)C(=O)NCC(=O)O)[C@@H](C)O)[C@@H](C)O [PLP-BPI, HSLGKWLGHPDKF-AcGAcGAc-ITDGEATDSG]
[2]
  number of animals that died, Day 10: 0
  number of animals that died, Day 11: 0
  number of animals that died, Day 14: 0
  toxicity (conclusion from mortality, in words): low toxicity
[5]; [7]
  Incidence of anaphylaxis: 35.7%
  Incidence of anaphylaxis (animals/total): 5/14
[5]; [8]
  Incidence of anaphylaxis: 38.5%
  Incidence of anaphylaxis (animals/total): 5/13
[6]; [10]
  Moribund or death: 3/6
[6]; [11]
  Moribund or death: 1/6
